In patent EP4671258A1, “RADIOACTIVE LABEL OF RISEDRONIC ACID DERIVATIVE, AND PRECURSOR COMPOUND THEREOF, AND PREPARATION METHOD THEREFOR AND USE THEREOF” (The Affiliated Hospital of Southwest Medical University, priority 2023, dated 2024):

System: tumor-bearing mice
Assay: Comparative PET/CT imaging experiment in tumor-bearing mice (Test Example 2)
Format: in vivo, nude mice
Settings: PET/CT whole-body imaging 2 hours after tail vein injection of about 0.1 ml (1 mCi/ml); MDA-MB-231 bone metastasis model
Description: In this test example, the PET/CT imaging experiment of the ^68Ga-labeled compound represented by Formula II-1 of the present disclosure in tumor-bearing mice was disclosed. • (1) Establishment of tumor-bearing mouse model: 12 SPF female nude mice were prepared. After isoflurane anesthesia, the skin around the left knee joint was disinfected. The left hind limb was bent and an insulin needle (29G needle) was used to insert vertically into the femur from the concave point of the femoral head joint fossa. The needle was slowly rotated into the bone marrow cavity and 25µl (containing about 2×10^6 cells) of MDA-MB-231 (human breast cancer cells, from ATCC) cell culture medium was injected. After disinfection, the hole was sealed with sterile bone wax, and the animal was placed on a 37°C hot plate to rewarm. After recovery, it was returned to the cage for continued feeding. • (2) Verification of tumor-bearing mouse model: 4 weeks after inoculation, 12 nude mice were scanned using Micro-CT respectively.
In this test example, a comparative PET/CT imaging experiment of the ^68Ga-labeled compound represented by Formula II-1 of the present disclosure and ^68Ga-DOTA-ibandronic acid in tumor-bearing mice was disclosed. The ^68Ga-DOTA-ibandronic acid was prepared according to the method No.5 in Table 1 in the description of the published Chinese patent application with application number 202111419244.X.
Four successfully modeled tumor-bearing mice were taken, in which two mice were injected with about 0.1 ml of the freshly prepared ^68Ga-labeled compound represented by Formula II-1 (with a concentration of 1 mCi/ml) via the tail vein, and the other two mice were injected with about 0.1 ml of the freshly prepared ^68Ga-DOTA-ibandronic acid (with a concentration of 1 mCi/ml) via the tail vein. PET/CT whole-body imaging was performed 2 hours after injection.
The T/N value was calculated according to the following formula: T/N value = SUVmax of lesion/SUVmax of background tissue [formula] Table 1: Imaging results of tumor-bearing mice

Q: With ^68Ga-DOTA-ibandronic acid as the substance, how does the “Head SUVmax” value read?
A: 0.783

Q: And the “Head SUVmin” value?
A: 0.230

Q: And the “Lesion SUVmax” value?
A: 0.647

Q: And the “Lesion SUVmin” value?
A: 0.139

Q: And the “Liver SUVmax” value?
A: 0.067

Q: And the “Liver SUVmin” value?
A: 0.046
